Measured values: patent US20220281848A1, “PYRAZOLE-SUBSTITUTED PYRROLIDINONES AS HERBICIDES” (FMC Corporation, priority 2019, published 2022)

How the values were obtained:
Type in all cases: in vivo
[1] = tested on: plants; test: Test D post-emergence, other plants of Tables D2 and D4; settings: post-emergence
Procedure, shortened: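 Seeds treated with herbicide safener; sown in soil; glasshouse, 16 h light, 65% humidity. Sprayed day 1 (pre) or ~day 12 (post). Spray in 0.2% v/v adjuvant. Scored 0–100 damage: 20 DAA pre, 15 d post.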

[2] = tested on: wheat; test: Test D pre-emergence, wheat seed treated with a herbicide safener; settings: 100=total damage, 0=no damage
Procedure, shortened: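 Safener-seed-treated maize and wheat were sprayed with an emulsifiable formulation diluted in 0.2% v/v adjuvant solution, one day after sowing (pre-emergence) or after about 12 days (post-emergence). Plants were grown in a glasshouse at 24/18 or 20/16 °C with 16 h light; damage was scored 0–100 at 20 DAA (pre) or 15 d (post).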

[3] = tested on: velvetleaf (Abutilon theophrasti, ABUTH); test: Test A pre-emergence, velvetleaf; settings: after 13 d
Procedure, shortened: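 Damage rated visually at 13 d on a 0–100 scale (100 = plant killed). Pre-emergence spray one day after sowing; doses 15.625, 62.5 or 250 g/ha from an acetone/water 50:50 formulation with 0.5% Tween 20. Glasshouse at 24/16° C., 14 h photoperiod, 65% humidity.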

CN1CC(c2cc(C(F)(F)F)n(C)n2)C(C(=O)Nc2cccc(F)n2)C1=O (racemic) [Compound 24]
damage to plant (100=total damage to plant; 0=no damage to plant), AMARE ([1]; rate 130, evaluated after 15 d): 0 | damage to plant (100=total damage to plant; 0=no damage to plant), AMARE ([1]; rate 250, evaluated after 15 d): 0 | damage to plant (100=total damage to plant; 0=no damage to plant), AMARE ([1]; rate 500, evaluated after 15 d): 0 | damage to plant (100=total damage to plant; 0=no damage to plant), BIDPI ([1]; rate 130, evaluated after 15 d): 0 | damage to plant (100=total damage to plant; 0=no damage to plant), BIDPI ([1]; rate 250, evaluated after 15 d): 0 | damage to plant (100=total damage to plant; 0=no damage to plant), BIDPI ([1]; rate 500, evaluated after 15 d): 0 | damage to plant (100=total damage to plant; 0=no damage to plant), BRAPL ([1]; rate 130, evaluated after 15 d): 0 | damage to plant (100=total damage to plant; 0=no damage to plant), BRAPL ([1]; rate 250, evaluated after 15 d): 40 | damage to plant (100=total damage to plant; 0=no damage to plant), BRAPL ([1]; rate 500, evaluated after 15 d): 50 | damage to plant (100=total damage to plant; 0=no damage to plant), CYPES ([1]; rate 130, evaluated after 15 d): 0 | damage to plant (100=total damage to plant; 0=no damage to plant), CYPES ([1]; rate 250, evaluated after 15 d): 0 | damage to plant (100=total damage to plant; 0=no damage to plant), CYPES ([1]; rate 500, evaluated after 15 d): 10 | damage to plant (100=total damage to plant; 0=no damage to plant), DIGSA ([1]; rate 130, evaluated after 15 d): 0 | damage to plant (100=total damage to plant; 0=no damage to plant), DIGSA ([1]; rate 250, evaluated after 15 d): 0 | damage to plant (100=total damage to plant; 0=no damage to plant), DIGSA ([1]; rate 500, evaluated after 15 d): 0 | damage to plant (100=total damage to plant; 0=no damage to plant), ECHCG ([1]; rate 130, evaluated after 15 d): 0 | damage to plant (100=total damage to plant; 0=no damage to plant), ECHCG ([1]; rate 250, evaluated after 15 d): 0 | damage to plant (100=total damage to plant; 0=no damage to plant), ECHCG ([1]; rate 500, evaluated after 15 d): 0 | damage to plant (100=total damage to plant; 0=no damage to plant), ELEIN ([1]; rate 130, evaluated after 15 d): 0 | damage to plant (100=total damage to plant; 0=no damage to plant), ELEIN ([1]; rate 250, evaluated after 15 d): 0 | damage to plant (100=total damage to plant; 0=no damage to plant), ELEIN ([1]; rate 500, evaluated after 15 d): 0 | damage to plant (100=total damage to plant; 0=no damage to plant), EPHHL ([1]; rate 130, evaluated after 15 d): 0 | damage to plant (100=total damage to plant; 0=no damage to plant), EPHHL ([1]; rate 250, evaluated after 15 d): 0 | damage to plant (100=total damage to plant; 0=no damage to plant), EPHHL ([1]; rate 500, evaluated after 15 d): 20 | damage to plant (100=total damage to plant; 0=no damage to plant), GLXMA ([1]; rate 130, evaluated after 15 d): 0 | damage to plant (100=total damage to plant; 0=no damage to plant), GLXMA ([1]; rate 250, evaluated after 15 d): 0 | damage to plant (100=total damage to plant; 0=no damage to plant), GLXMA ([1]; rate 500, evaluated after 15 d): 10 | damage to plant (100=total damage to plant; 0=no damage to plant), IPOHE ([1]; rate 130, evaluated after 15 d): 0 | damage to plant (100=total damage to plant; 0=no damage to plant), IPOHE ([1]; rate 250, evaluated after 15 d): 0 | damage to plant (100=total damage to plant; 0=no damage to plant), IPOHE ([1]; rate 500, evaluated after 15 d): 10 | damage to plant (100=total damage to plant; 0=no damage to plant), ORYSA ([1]; rate 130, evaluated after 15 d): 0 | damage to plant (100=total damage to plant; 0=no damage to plant), ORYSA ([1]; rate 250, evaluated after 15 d): 0 | damage to plant (100=total damage to plant; 0=no damage to plant), ORYSA ([1]; rate 500, evaluated after 15 d): 10 | damage to plant (100=total damage to plant; 0=no damage to plant), PANMI ([1]; rate 130, evaluated after 15 d): 0 | damage to plant (100=total damage to plant; 0=no damage to plant), PANMI ([1]; rate 250, evaluated after 15 d): 0 | damage to plant (100=total damage to plant; 0=no damage to plant), PANMI ([1]; rate 500, evaluated after 15 d): 10 | damage to plant (100=total damage to plant; 0=no damage to plant), SETFA ([1]; rate 130, evaluated after 15 d): 0 | damage to plant (100=total damage to plant; 0=no damage to plant), SETFA ([1]; rate 250, evaluated after 15 d): 0 | damage to plant (100=total damage to plant; 0=no damage to plant), SETFA ([1]; rate 500, evaluated after 15 d): 10 | damage to plant (100=total damage to plant; 0=no damage to plant), SORVU ([1]; rate 130, evaluated after 15 d): 0 | damage to plant (100=total damage to plant; 0=no damage to plant), SORVU ([1]; rate 250, evaluated after 15 d): 0 | damage to plant (100=total damage to plant; 0=no damage to plant), SORVU ([1]; rate 500, evaluated after 15 d): 0 | damage to plant, TRZAW ([2]; rate 15, 20 DAA): 0 | damage to plant, TRZAW ([2]; rate 30, 20 DAA): 0 | damage to plant, TRZAW ([2]; rate 60, 20 DAA): 0 | damage to plant, TRZAW ([2]; rate 130, 20 DAA): 0 | damage to plant, TRZAW ([2]; rate 250, 20 DAA): 0 | damage to plant, TRZAW ([2]; rate 500, 20 DAA): 10 | damage to plant (100=total damage; 0=no damage) ABUTH ([3]; Pre-Emergence at 15.625 g/ha): 0 | damage to plant (100=total damage; 0=no damage) ABUTH ([3]; Pre-Emergence at 62.5 g/ha): 0 | damage to plant (100=total damage; 0=no damage) ABUTH ([3]; Pre-Emergence at 250 g/ha): 0
